Measurements as given in patent US20240358684A1, “METHOD FOR ENHANCING INNATE IMMUNE RESPONSE” (Kyoto University, priority 2021, published 2024).

Tests used:
[1] = target: T1, CLK3 (Homo sapiens, UniProt P49761); assay: Inhibition confirmation test for CLK (off-chip mobility shift assay); format: biochemical; conditions: ATP 75 μM; read-out: CLK3 inhibitory activity (IC50 value)
T1 construct: Enzyme activity was measured with off-chip mobility shift assay using purified CLK protein
Description: (§1) Enzyme activity was measured with off-chip mobility shift assay using purified CLK protein. DYRKtide-F peptide (1 μM) was used as a substrate, and a composition of a reaction solution used was as follows (20 mM HEPES (pH7.5), 0.01% Triton X-100, 1 mM DT7, 1% DMSO, and ATP (10 μM for CLK1, 150 μM for CLK2, and 75 μM for CLK3)). The enzyme reaction was performed at room temperature for 1 hour, and the reaction was terminated by adding QuickScout Screening Assist MSA (Carna Biosciences, Inc.). A substrate peptide and a phosphorylated peptide in the enzyme reaction solution were separated and quantified using the LabChip system (Perkin-Elmer, Waltham, MA, USA), and inhibition of CLK was evaluated by calculating a product ratio using the following formula, the substrate peptide peak height (S), and the phosphorylated peptide peak height (P).
(§2) (P/(P+S)) • P: product-derived peak • S: substrate-derived peak

[2] = target: T2, CLK2 (Homo sapiens, UniProt P49760); assay: as above; format: biochemical; conditions: ATP 150 μM; read-out: CLK2 inhibitory activity (IC50 value)
T2 construct: Enzyme activity was measured with off-chip mobility shift assay using purified CLK protein
T2 sequence (P49760 whole entry): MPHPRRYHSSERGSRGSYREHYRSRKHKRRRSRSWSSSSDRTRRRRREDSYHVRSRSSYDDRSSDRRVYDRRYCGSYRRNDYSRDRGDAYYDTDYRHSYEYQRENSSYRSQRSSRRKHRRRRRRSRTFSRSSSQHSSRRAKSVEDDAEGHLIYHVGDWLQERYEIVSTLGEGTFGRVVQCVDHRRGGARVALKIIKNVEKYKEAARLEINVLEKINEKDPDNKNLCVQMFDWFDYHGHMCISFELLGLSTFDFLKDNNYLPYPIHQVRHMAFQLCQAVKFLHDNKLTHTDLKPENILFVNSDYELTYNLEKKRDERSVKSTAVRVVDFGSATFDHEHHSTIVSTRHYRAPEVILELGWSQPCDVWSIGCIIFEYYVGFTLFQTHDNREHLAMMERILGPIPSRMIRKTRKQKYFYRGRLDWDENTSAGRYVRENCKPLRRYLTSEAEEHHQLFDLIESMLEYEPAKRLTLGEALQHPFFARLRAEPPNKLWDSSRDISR
Description: as §1, §2

[3] = test system: OAS1 rs10774671 A-allele splicing; assay: RT-PCR for OAS1 alternative splicing profile in Calu-3 (A/A allele) cells; format: cell-based, human; conditions: Calu-3, 10 μM, 24 h
[4] = test system: OAS1 splice variants; assay: RNA-Seq splice-junction reads for OAS1 splice variants in Calu-3 cells; format: cell-based, human; conditions: Calu-3, 10 μM, 18 h
Description: (§3) Transcriptome analysis for compound 1-treated Calu-3 cells RNAs were extracted using RNeasy Mini kit (QIAGEN, Hilden, Germany) from Calu-3 cells, treated with 10 μM compound 1 or 0.1% DMSO for 18 h, and applied for RNA-Seq analysis. Three technical replicates for RNA-Seq, where each experiment was independently conducted three times from a stocked total RNA. RNA-seq reads were mapped to the human genome sequences (GRCh38) using STAR (ver. 2.7.1a, https://github.com/alexdobin/STAR) with ENCODE options, using the Ensembl genome annotation (ver. 102). Raw reads were counted with bam files, and TPM values were calculated using RSEM v1.2.31 (https://github.com/deweylab/RSEM). Differentially expressed genes were identified using the method described above. Differential alternative splicing (DAS) events were analyzed with the method previously described (Sakuma et al., 2015) using the rMATS program (http://rnaseq-mats.sourceforge.net/rmats4.1.1/). DAS was defined by the following criteria: FDR<0.01, read counts≥15, and delta Percent Spliced-In (PSI)≥0.05. The DAS events were compared with the gene annotation information, the event types were then classified into events on the exons constituting the productive mRNAs, events on additional exons/regions of the productive mRNAs, and others. For characterizing gene set and transcriptome profiles, the Metascape website (https://imetascape.org/) and Gene Set Enrichment Analysis (GSEA, https://ww.gsea-maigdb.org/gsea/) were used. The same samples were also used for RT-PCR.

[5] = test system: OAS1 exon 5 splice donor (SD) sequence; assay: RNA pull-down assay with OAS1 exon 5 splice donor RNA and western blot; format: binding, human; conditions: Calu-3 cell lysate, 10 μM
Description: Calu-3 whole cell lysates were prepared using a lysis buffer containing 10 mM Tris-HCl (pH 7.4), 150 mM NaCl, 1 mM ethylenediaminetetraacetic acid, 1% Triton X-100, 0.1% sodium dodecyl sulphate, 0.25% sodium deoxycholate, and 10% glycerol with protease inhibitors (Nacalai Tesque) and phosphatase inhibitors (Sigma-Aldrich, Munich, Germany), followed by sonication, treatment with DNase I (Promega. Madison, WI, USA) at 37° C. for 5 min, and centrifugation (24,000×g at 4° C. for 15 min). The supernatant was used as the soluble fraction for the RNA-pull down assay. […] This was followed by washing the resultant thrice with tris-buffered saline and elution with Laemmli buffer. Three technical replicates for RNA pull-down assay were independently conducted, three times from a stocked cell lysate. […] Chemiluminescent signals were detected using a ChemiDoc MP Imaging System (Bio-Rad, Hercules, CA, USA).

[6] = test system: RNase L pathway (rRNA degradation)
[7] = test system: Calu-3 cells; assay: Transcriptome analysis (RNA-Seq, differential expression and differential alternative splicing) of compound 1-treated Calu-3 cells; format: cell-based, human; conditions: 18 h; for delta PSI: 10 μM
Description: as §3

T1 sequence (P49761 whole entry): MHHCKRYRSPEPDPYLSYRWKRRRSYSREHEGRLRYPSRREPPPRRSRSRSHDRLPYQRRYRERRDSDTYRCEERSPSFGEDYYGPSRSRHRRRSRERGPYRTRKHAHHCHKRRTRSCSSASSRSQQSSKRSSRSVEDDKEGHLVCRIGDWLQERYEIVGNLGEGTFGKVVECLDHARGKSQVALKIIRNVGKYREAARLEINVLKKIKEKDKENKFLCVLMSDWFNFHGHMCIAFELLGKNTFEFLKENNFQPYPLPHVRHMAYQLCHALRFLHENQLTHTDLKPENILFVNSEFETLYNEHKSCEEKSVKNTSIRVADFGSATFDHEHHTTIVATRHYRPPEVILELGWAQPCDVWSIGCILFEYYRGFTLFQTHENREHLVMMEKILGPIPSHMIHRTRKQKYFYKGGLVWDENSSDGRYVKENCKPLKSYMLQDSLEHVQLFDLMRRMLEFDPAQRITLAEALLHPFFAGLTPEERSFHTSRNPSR

N=C1NC(=O)/C(=C/c2ccc3c(c2)CCO3)S1 [compound 1]
IC50 [1]: 116 nM
IC50 [2]: 68.3 nM
splice-switching for OAS1 with the A-allele (RT-PCR) [3]: suppressing p42 splicing while promoting p44a and p44b variant production
p42 variant suppressed (RNA-Seq) [4]: 51%
p44a variant increased (RNA-Seq) [4]: 130%
p44b variant increased (RNA-Seq) [4]: 100%
U1snRNP (U1-70k) binding to OAS1 exon 5 donor site [5]: enhanced
phosphorylated SRSF6 in OAS1 SD pull-down products [5]: not detected
28S rRNA peak fold change [6]: 0.56
concentration of decomposition products, sized 2,000-3,000 nucleotides, fold change [6]: 1.35
delta PSI ([7]; AAMP Intron between E5-E7 RI): −0.307
delta PSI ([7]; AC107871.1 E2-E3 SE additional exon): −0.333
delta PSI ([7]; AL117339.4 E2 SE): 0.318
delta PSI ([7]; AL136531.2 E2-E3 SE additional exon): −0.418
delta PSI ([7]; AL163636.1 E2 SE): 0.331
delta PSI ([7]; APOL1 E3 A3SS): −0.448
delta PSI ([7]; CABYR E4 A5SS): 0.309
delta PSI ([7]; CDK5RAP2 E32 SE): 0.313
delta PSI ([7]; CENPE E17 SE): 0.422
delta PSI ([7]; CFAP298 Intron between E5-E7 RI): −0.451
delta PSI ([7]; CLK1 E4 SE): 0.331
delta PSI ([7]; CLK4 E4 SE): 0.37
delta PSI ([7]; CLK4 Intron between E3-E4 RI): −0.346
delta PSI ([7]; CLK4 Intron between E4-E5 RI): −0.401
delta PSI ([7]; CYLD E2-E3 SE additional exon): −0.307
differential expression, number of genes ([7]; Calu-3, 10 μM): 98 genes
splice alterations yielding protein-coding variants, number of genes ([7]; Calu-3, 10 μM): 63 genes
delta PSI ([7]; DCUN1D2 E4-E5 SE additional exon): −0.438
delta PSI ([7]; DMD E71 SE): 0.365
delta PSI ([7]; DNHD1 Intron between E42-E43 RI): −0.31
delta PSI ([7]; DNM1 E14 SE): 0.342
delta PSI ([7]; DYNC1LI1 Intron between E8-E10 RI): −0.778
delta PSI ([7]; EPB41 E16-E17 SE additional exon): −0.301
delta PSI ([7]; FAAP100 E2 A5SS): −0.318
delta PSI ([7]; GALT Intron between E2-E6 RI): −0.374
delta PSI ([7]; GK E9 SE): 0.322
delta PSI ([7]; HAT1 Intron between E6-E8 RI): −0.584
delta PSI ([7]; HERC3 E17 SE): 0.309
delta PSI ([7]; HERC4 E17 SE): 0.38
delta PSI ([7]; IMPDH2 Intron between E3-E5 RI): −0.376
delta PSI ([7]; KANSL3 E3 A3SS): −0.309
delta PSI ([7]; KTN1 E41 SE): 0.304
delta PSI ([7]; LIMCH1 E9 SE): 0.42
delta PSI ([7]; LRP8 E5 SE): 0.392
delta PSI ([7]; LRRC6 E5 SE): 0.391
delta PSI ([7]; LRRC75B E1-E2 SE additional exon): −0.338
delta PSI ([7]; MAP3K7 E12 SE): 0.404
delta PSI ([7]; MCTP1 E8 SE): 0.367
delta PSI ([7]; METTL26 E2 SE): 0.3
delta PSI ([7]; MON2 E28 SE): 0.345
delta PSI ([7]; MPP3 E11 SE): 0.32
delta PSI ([7]; MSL3 Intron between E4-E6 RI): −0.485
delta PSI ([7]; MYO6 E34 SE): 0.405
delta PSI ([7]; MYOM1 E18 SE): 0.344
delta PSI ([7]; NAV2 E28 SE): 0.437
delta PSI ([7]; NEK1 E17 SE): 0.367
delta PSI ([7]; NGDN Intron between E4-E7 RI): −0.302
delta PSI ([7]; OBSL1 E12 SE): 0.369
delta PSI ([7]; PCGF3 E3-E4 SE additional exon): −0.318
delta PSI ([7]; PDE9A E5 SE): 0.378
delta PSI ([7]; PI4KB E2 SE): 0.421
delta PSI ([7]; PNKP Intron between E14-E16 RI): −0.3
delta PSI ([7]; PPM1K E2 SE): 0.317
delta PSI ([7]; RBPMS E8 SE): 0.301
delta PSI ([7]; RPGR E14 SE): 0.448
delta PSI ([7]; RPL3 Intron between E7-E9 RI): −0.381
delta PSI ([7]; RPL13A Intron between E2-E4 RI): −0.654
delta PSI ([7]; RTN4 E3 SE): 0.361
delta PSI ([7]; SAMD9L Partial Intron on E3 RI): 0.364
delta PSI ([7]; SLC25A29 E2-E3 SE additional exon): −0.314
delta PSI ([7]; SMARCA1 E13 SE): 0.367
delta PSI ([7]; SNX14 E16 SE): 0.336
delta PSI ([7]; SPATA20 E1-E2 SE additional exon): −0.319
delta PSI ([7]; TRIM2 E2 SE): 0.372
delta PSI ([7]; TRMU Intron between E9-E11 RI): −0.333
delta PSI ([7]; WNK1 E11 SE): 0.517
delta PSI ([7]; ZNF519 E3 A3SS): 0.316
